According to patent US20210369677A1, “SMALL MOLECULE ACTIVATORS OF POLYCYSTIN-2 (PKD2) AND USES THEREOF” (Northwestern University, priority 2020, published 2021):

Target: T1, polycystin-2L1 (Homo sapiens, UniProt Q9P0L9, C210S/C223S)
T1 construct: expressed in transfected cells; host or cells: HEK cells, transient overexpression
Format: cell-based
Details: C210S:C223S mutant
Procedure: Electrophysiology. Ciliary ion currents were recorded using borosilicate glass electrodes polished to resistances of 14-22 MΩ using the cilium patch method previously described^32. Whole cell electrodes used to measure poly cystin-2L1 currents were fire polished to 1.5-4 MΩ resistances. Unless otherwise stated, whole cilia ionic currents were recorded in symmetrical [Na^+]. The pipette standard internal solution contained (in mM): 90 NaMES, 10 NaCl, 10 HEPES, 10 Na4-BAPTA (Glycine, N, N′-[1,2-ethanediylbis(oxy-2,1-phenylene)]bis[N-(carboxymethyl)]-,tetrasodium); pH was adjusted to 7.3 using NaOH. Standard bath solution contained 140 NaCl, 10 HEPES, 1.8 CaCl2); pH 7.4. All solutions were osmotically balanced to 295 (±6) mOsm with mannitol. Extracellular solutions containing TCEP and GSH were used within six hours of formulation. Data were collected using an Axopatch 200B patch clamp amplifier, Digidata 1440A, and pClamp 10 software. Whole-cilium and excised patch currents were digitized at 25 kHz and low-pass filtered at 10 kHz. In the whole cilium configuration, the holding potential was −60 mV and then depolarized using a 400 ms voltage ramp from −100 mV to 100 mV. The whole cell recordings of polycystin-2L1 currents were either activated by the same ramp protocol or by 100 ms depolarizations to 100 mV from a −100 mV holding potential. External conditions were controlled using a Warner Perfusion Fast-Step (SF-77B) system in which the patched cilia and electrode were held in the perfusate stream. Data were analyzed by Igor Pro 7.00 (Wavemetrics, Lake Oswego, Oreg.). The polycystin-2 open probability and the polycystin-2L1 tail current-voltage relationships were fit to a Boltzmann function, f(x)=1/(1+exp[V−V1/2]/k) to estimate voltage of half-maximal activation of current (V1/2).

T1 sequence (Q9P0L9 whole entry C210S/C223S): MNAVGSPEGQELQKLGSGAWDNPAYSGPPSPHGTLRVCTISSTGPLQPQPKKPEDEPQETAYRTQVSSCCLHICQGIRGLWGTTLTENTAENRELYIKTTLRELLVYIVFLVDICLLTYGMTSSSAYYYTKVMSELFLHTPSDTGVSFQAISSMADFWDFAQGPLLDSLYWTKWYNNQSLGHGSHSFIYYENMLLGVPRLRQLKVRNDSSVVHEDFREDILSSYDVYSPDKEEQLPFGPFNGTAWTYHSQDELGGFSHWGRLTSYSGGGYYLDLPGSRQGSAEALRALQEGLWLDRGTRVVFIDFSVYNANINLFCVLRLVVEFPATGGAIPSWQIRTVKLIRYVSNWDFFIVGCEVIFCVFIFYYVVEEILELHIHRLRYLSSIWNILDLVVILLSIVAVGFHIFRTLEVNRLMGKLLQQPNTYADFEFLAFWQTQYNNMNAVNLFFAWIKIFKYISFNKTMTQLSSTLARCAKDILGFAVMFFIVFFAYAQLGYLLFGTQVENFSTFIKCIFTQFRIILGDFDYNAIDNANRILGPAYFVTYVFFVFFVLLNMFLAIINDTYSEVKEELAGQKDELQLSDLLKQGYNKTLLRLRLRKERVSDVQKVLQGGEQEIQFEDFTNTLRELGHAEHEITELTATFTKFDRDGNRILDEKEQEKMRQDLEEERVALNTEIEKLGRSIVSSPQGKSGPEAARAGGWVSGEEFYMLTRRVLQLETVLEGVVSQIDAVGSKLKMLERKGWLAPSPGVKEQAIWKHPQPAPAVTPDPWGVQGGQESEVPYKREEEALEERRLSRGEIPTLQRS

`N[C@@H](CCC(=O)N[C@@H](CS)C(=O)NCC(=O)O)C(=O)O` [GSH, reduced glutathione] was tested, and the “Effect on C210S:C223S polycystin-2L1 channel” value was “insensitive”.
